Results as given in ChEMBL document CHEMBL4376834, “Discovery of 4H-Chromen-4-one Derivatives as a New Class of Selective Rho Kinase (ROCK) Inhibitors, which Showed Potent Activity in ex Vivo Diabetic Retinopathy Models” (J Med Chem, 2019).

Experiments:
[1] = target: Rho-associated protein kinase 1 (Homo sapiens, UniProt Q13464); experiment: Inhibition of recombinant human ROCK1 (17 to 535 residues) using […] as substrate incubated for 40 mins in presence of [gamma-33P]ATP and 10 uM ATP by radiometric scintillation counting analysis
[2] = target: Tribbles homolog 2 (Homo sapiens, UniProt Q92519); experiment: Inhibition of recombinant full-length human TRB2 using RRRFRPASPLRGP as substrate incubated for 120 mins in presence of [gamma33P]ATP by radiometric scintillation counting analysis
[3] = target: Hepatocyte growth factor receptor (Homo sapiens, UniProt P08581, Y1230C); experiment: Inhibition of recombinant human MET A1209G/V1290L/Y1248C triple mutant (974 to end residues) using KKKGQEEEYVFIE as substrate incubated for 40 mins in presence of [gamma-33ATP by radiometric scintillation counting analysis
[4] = target: Serine/threonine-protein kinase D2 (Homo sapiens, UniProt Q9BZL6); experiment: Inhibition of recombinant full-length human PKD2 using KKLNRTLSVA as substrate incubated for 40 mins in presence of [gamma33P]ATP by radiometric scintillation counting analysis
[5] = target: Phosphorylase b kinase gamma catalytic chain, liver/testis isoform (Homo sapiens, UniProt P15735, F290L); experiment: Inhibition of recombinant human PhKgamma2 F290L (1 to 301 residues) usingKKLNRTLSFAEPG as substrate incubated for 40 mins in presence of [gamma33P]ATP by radiometric scintillation counting analysis
[6] = target: Hepatocyte growth factor receptor (Homo sapiens, UniProt P08581, D1228H); experiment: Inhibition of recombinant human MET A1209G/V1290L/D1246H triple mutant (974 to end residues) using KKKGQEEEYVFIE as substrate incubated for 40 mins in presence of [gamma-33ATP by radiometric scintillation counting analysis
[7] = target: Mitogen-activated protein kinase kinase kinase kinase 1 (Homo sapiens, UniProt Q92918); experiment: Inhibition of human recombinant HPK1 (1 to 346 residues) using myelin basic protein as substrate after 40 mins by [gamma-33ATP] radiometric assay
[8] = target: Serine/threonine-protein kinase Nek4 (Homo sapiens, UniProt P51957, P225A); experiment: Inhibition of recombinant full-length human NEK4 P225A mutant using myelin basic protein as substrate measured after 40 mins in presence of [gamma33P]ATP by radiometric scintillation counting analysis
[9] = target: Serine/threonine-protein kinase PAK 4 (Homo sapiens, UniProt O96013); experiment: Inhibition of recombinant human PAK4 (295 to end residues) using myelin basic protein as substrate measured after 40 mins in presence of [gamma33P]ATP by radiometric scintillation counting analysis
[10] = target: Myosin light chain kinase, smooth muscle (Homo sapiens, UniProt Q15746); experiment: Inhibition of recombinant human MLCK (1425 to 1771 residues) using […] as substrate incubated for 40 mins in presence of [gamma-33ATP by radiometric scintillation counting analysis
[11] = target: Casein kinase 2 (Homo sapiens, UniProt P67870+P68400+P19784+Q8NEV1); experiment: Inhibition of recombinant human CK2 in presence of [gamma-33ATP] by radiometric scintillation counting analysis; format: protein assay
[12] = target: Ephrin type-A receptor 8 (Homo sapiens, UniProt P29322); experiment: Inhibition of recombinant human EPhA8 (615 to 911 residues) at 10 uM using KTFCGTPEYLAPE as substrate incubated for 40 mins in presence of [gamma-33PATP] by radiometric scintillation counting analysis
[13] = target: Serine/threonine-protein kinase ICK (Homo sapiens, UniProt Q9UPZ9); experiment: Inhibition of human recombinant ICK (1 to 312 residues) using RRRFRPASPLRGP as substrate after 40 mins by [gamma-33ATP] by radiometric scintillation counting analysis
[14] = target: Vascular endothelial growth factor receptor 2 (Homo sapiens, UniProt P35968); experiment: Inhibition of human recombinant KDR (790 to end residues) using myelin basic protein as substrate after 40 mins by [gamma-33ATP] by radiometric scintillation counting analysis
[15] = target: Receptor-type tyrosine-protein kinase FLT3 (Homo sapiens, UniProt P36888); experiment: Inhibition of recombinant human FLT3 (564 to end residues) using EAIYAAPFAKKK as substrate after 40 mins in presence of [gamma-33ATP] by radiometric scintillation counting analysis
[16] = target: Casein kinase II subunit alpha (Homo sapiens, UniProt P68400); experiment: Inhibition of recombinant full length human CK2alpha1 using RRRDDDSDDD as substrate incubated 40 mins in presence of [gamma-33ATP] by radiometric scintillation counting analysis
[17] = target: Calcium/calmodulin-dependent protein kinase type 1G (Homo sapiens, UniProt Q96NX5); experiment: Inhibition of recombinant full length human CaMK1gamma using KKLRRTLSFAEPG as substrate incubated for 40 mins in presence of [gamma-33ATP] by radiometric scintillation counting analysis
[18] = target: Serine/threonine-protein kinase VRK1 (Homo sapiens, UniProt Q99986); experiment: Inhibition of human VRK1 in presence of 10 uM ATP by radiometric analysis
[19] = target: Serine/threonine-protein kinase pim-2 (Homo sapiens, UniProt Q9P1W9); experiment: Inhibition of recombinant human Pim2 (2 to end residues) using RSRHSSYPAGT as substrate incubated for 40 mins in presence of [gamma33P]ATP by radiometric scintillation counting analysis
[20] = target: Transcription initiation factor TFIID subunit 1-like (Homo sapiens, UniProt Q8IZX4); experiment: Inhibition of recombinant human TAF1L (1428 to end residues) using RRRFRPASPLRGP as substrate incubated for 120 mins in presence of [gamma33P]ATP by radiometric scintillation counting analysis
[21] = target: Interferon-induced, double-stranded RNA-activated protein kinase (Homo sapiens, UniProt P19525); experiment: Inhibition of recombinant human PKR (252 to end residues) using RSRSRSRSRSRSRS as substrate incubated for 40 mins in presence of [gamma33P]ATP by radiometric scintillation counting analysis
[22] = target: Leukocyte tyrosine kinase receptor (Homo sapiens, UniProt P29376); experiment: Inhibition of recombinant human LTK (450 to end residues) using GEEPLYWSFPAKK as substrate after 40 mins in presence of [gamma-33ATP] by radiometric scintillation counting analysis
[23] = target: Receptor-interacting serine/threonine-protein kinase 2 (Homo sapiens, UniProt O43353); experiment: Inhibition of recombinant human RIPK2 (1 to 299 residues) using MBP as substrate incubated for 120 mins in presence of [gamma33P]ATP by radiometric scintillation counting analysis
[24] = target: Serine/threonine-protein kinase PAK 6 (Homo sapiens, UniProt Q9NQU5); experiment: Inhibition of recombinant human PAK6 (382 to end residues) using RRRLSFAEPG as substrate measured after 40 mins in presence of [gamma33P]ATP by radiometric scintillation counting analysis
[25] = target: Protein kinase C beta type (Homo sapiens, UniProt P05771); experiment: Inhibition of recombinant human PKCbeta1 (2 to end residues) using histone H1 as substrate incubated for 40 mins in presence of [gamma33P]ATP by radiometric scintillation counting analysis

Tribbles homolog 2, sequence (Q92519 whole entry): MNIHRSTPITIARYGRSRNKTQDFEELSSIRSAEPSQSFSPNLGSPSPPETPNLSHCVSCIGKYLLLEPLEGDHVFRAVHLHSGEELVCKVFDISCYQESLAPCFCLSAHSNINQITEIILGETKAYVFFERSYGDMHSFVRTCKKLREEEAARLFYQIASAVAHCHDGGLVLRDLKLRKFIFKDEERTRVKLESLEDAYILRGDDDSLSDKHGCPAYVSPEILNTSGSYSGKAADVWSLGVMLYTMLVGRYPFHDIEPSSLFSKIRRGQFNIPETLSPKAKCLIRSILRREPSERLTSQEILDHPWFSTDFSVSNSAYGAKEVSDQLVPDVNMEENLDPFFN
Phosphorylase b kinase gamma catalytic chain, liver/testis isoform, sequence (P15735 whole entry F290L, the tested form may be a part, canonical isoform): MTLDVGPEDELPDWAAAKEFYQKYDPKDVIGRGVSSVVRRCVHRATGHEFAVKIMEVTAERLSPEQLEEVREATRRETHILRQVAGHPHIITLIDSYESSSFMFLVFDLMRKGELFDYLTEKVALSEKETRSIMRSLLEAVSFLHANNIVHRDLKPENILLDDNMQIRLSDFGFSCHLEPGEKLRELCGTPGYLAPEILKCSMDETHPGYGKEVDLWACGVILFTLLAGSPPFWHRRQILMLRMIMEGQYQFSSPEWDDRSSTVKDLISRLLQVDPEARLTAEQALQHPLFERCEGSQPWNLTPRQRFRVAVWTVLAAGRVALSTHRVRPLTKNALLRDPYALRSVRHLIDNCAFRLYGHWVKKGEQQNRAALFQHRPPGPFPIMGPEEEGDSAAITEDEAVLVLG
Hepatocyte growth factor receptor (Homo sapiens, UniProt P08581, D1228H), sequence (P08581 25-1390 D1228H limits assumed): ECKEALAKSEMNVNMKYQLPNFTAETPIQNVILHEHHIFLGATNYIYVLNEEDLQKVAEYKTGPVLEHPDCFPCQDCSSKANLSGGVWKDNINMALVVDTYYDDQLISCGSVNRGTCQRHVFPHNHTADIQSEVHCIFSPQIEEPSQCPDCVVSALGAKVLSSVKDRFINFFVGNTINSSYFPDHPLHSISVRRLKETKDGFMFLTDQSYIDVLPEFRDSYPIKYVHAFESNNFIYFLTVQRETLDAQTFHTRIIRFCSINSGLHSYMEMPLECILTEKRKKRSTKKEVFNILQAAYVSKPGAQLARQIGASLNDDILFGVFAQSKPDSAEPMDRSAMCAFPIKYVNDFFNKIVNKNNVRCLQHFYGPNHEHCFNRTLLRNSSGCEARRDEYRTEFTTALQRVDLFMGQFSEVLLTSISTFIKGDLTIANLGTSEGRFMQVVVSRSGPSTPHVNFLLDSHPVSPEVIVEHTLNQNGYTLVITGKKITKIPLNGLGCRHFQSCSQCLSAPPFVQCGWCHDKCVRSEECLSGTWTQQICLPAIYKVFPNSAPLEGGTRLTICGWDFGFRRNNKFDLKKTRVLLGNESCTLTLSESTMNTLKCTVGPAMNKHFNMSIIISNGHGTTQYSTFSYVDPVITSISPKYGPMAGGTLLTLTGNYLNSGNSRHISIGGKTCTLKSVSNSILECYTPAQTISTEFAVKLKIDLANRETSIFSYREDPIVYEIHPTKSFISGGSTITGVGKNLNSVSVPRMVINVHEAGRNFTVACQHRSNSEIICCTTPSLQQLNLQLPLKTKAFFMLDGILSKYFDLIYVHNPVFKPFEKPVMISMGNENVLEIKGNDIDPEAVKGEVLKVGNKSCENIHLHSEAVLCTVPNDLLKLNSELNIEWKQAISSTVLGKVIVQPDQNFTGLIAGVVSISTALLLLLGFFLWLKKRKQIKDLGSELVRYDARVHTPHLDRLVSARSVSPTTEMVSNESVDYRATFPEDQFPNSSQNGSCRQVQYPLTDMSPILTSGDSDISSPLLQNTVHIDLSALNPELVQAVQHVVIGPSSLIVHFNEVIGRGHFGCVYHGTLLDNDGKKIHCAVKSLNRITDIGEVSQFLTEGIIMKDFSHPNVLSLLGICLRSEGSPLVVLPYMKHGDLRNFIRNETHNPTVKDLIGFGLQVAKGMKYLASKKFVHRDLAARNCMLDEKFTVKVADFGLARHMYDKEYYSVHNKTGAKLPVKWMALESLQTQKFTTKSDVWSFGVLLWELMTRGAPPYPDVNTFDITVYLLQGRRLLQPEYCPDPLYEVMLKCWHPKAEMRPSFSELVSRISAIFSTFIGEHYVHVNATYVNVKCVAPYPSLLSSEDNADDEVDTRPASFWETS
Casein kinase II subunit alpha, sequence (P68400 whole entry): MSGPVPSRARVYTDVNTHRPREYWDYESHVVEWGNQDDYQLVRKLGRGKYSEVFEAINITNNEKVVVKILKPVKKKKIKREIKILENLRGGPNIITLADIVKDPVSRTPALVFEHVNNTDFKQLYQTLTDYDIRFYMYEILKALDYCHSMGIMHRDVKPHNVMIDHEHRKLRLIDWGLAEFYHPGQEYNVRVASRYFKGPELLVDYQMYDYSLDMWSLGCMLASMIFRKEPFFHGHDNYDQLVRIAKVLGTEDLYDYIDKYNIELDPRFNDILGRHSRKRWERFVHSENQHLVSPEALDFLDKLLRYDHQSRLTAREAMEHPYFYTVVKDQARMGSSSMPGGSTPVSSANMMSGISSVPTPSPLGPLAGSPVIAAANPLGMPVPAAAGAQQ
Ephrin type-A receptor 8, sequence (P29322 whole entry, the tested form may be a part): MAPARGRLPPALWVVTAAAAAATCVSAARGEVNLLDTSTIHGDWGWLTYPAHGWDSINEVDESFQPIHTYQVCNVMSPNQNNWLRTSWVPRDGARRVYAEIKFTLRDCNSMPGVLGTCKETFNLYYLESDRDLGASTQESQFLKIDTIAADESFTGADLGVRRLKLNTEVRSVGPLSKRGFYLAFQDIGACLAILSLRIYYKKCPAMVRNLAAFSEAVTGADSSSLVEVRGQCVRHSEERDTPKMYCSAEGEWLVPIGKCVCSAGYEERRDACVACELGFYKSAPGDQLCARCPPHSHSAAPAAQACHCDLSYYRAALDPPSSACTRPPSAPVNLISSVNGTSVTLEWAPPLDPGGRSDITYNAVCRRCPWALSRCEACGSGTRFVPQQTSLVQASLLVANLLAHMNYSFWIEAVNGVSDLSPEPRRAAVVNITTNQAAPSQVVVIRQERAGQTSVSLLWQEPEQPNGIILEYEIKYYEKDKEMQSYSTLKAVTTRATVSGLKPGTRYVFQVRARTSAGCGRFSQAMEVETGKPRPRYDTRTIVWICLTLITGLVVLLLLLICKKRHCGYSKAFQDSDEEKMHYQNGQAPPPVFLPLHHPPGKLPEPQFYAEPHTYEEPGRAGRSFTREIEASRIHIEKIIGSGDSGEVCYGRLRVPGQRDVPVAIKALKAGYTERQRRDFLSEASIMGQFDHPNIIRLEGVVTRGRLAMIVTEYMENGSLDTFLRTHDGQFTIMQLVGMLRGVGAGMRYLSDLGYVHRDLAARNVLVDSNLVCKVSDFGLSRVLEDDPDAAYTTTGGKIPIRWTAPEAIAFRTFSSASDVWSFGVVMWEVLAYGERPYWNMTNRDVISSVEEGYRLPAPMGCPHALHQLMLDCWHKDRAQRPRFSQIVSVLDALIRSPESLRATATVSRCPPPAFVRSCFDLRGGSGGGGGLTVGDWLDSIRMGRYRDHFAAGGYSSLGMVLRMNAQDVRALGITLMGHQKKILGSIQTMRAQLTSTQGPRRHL
Serine/threonine-protein kinase PAK 6, sequence (Q9NQU5 whole entry): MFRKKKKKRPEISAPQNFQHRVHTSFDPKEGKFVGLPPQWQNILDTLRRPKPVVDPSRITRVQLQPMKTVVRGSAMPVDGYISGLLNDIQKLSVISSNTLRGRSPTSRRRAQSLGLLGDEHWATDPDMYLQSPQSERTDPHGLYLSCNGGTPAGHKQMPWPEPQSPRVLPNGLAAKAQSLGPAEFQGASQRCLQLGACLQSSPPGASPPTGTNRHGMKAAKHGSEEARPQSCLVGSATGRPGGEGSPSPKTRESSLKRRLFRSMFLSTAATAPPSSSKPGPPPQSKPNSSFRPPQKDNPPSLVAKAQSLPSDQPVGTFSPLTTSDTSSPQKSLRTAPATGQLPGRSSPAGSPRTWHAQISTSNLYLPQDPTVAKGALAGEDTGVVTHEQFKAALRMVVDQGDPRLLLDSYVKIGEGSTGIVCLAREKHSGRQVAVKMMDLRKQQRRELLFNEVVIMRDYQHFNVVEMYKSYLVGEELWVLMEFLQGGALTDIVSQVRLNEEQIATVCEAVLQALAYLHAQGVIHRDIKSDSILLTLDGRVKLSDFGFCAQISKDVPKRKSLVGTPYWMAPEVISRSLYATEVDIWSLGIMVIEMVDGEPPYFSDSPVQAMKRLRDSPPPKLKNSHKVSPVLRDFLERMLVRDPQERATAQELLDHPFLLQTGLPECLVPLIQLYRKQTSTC
Serine/threonine-protein kinase ICK, sequence (Q9UPZ9 whole entry, the tested form may be a part): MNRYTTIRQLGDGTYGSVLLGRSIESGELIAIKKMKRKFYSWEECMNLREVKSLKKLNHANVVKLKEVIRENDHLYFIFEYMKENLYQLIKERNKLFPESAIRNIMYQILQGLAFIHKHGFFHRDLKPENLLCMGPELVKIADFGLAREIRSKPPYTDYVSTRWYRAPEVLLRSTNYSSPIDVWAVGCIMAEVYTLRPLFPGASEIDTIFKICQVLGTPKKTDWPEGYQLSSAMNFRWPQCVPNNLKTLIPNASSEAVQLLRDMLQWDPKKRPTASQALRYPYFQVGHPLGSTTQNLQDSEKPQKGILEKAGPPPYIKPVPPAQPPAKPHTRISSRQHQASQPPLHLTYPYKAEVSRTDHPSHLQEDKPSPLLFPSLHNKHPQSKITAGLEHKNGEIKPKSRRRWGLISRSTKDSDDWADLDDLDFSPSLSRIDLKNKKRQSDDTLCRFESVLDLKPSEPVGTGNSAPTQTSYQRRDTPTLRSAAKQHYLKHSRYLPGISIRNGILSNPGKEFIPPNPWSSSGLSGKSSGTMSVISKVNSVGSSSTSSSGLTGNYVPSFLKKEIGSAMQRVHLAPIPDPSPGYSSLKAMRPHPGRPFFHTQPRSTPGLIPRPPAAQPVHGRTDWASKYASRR

CN(C)c1ccc(C(=O)Nc2cccc(NC(=O)COc3ccc4c(=O)ccoc4c3)c2)cc1
IC50 [1]: 0.014 µM | IC50 [2]: > 10 µM | IC50 [3]: > 10 µM | IC50 [4]: > 10 µM | IC50 [5]: > 10 µM | IC50 [6]: > 10 µM | IC50 [7]: > 10 µM | IC50 [8]: > 10 µM | IC50 [9]: > 10 µM | IC50 [10]: > 10 µM | IC50 [11]: > 10 µM | IC50 [12]: > 10 µM | IC50 [13]: > 10 µM | IC50 [14]: > 10 µM | IC50 [15]: > 10 µM | IC50 [16]: > 10 µM | IC50 [17]: > 10 µM | IC50 [18]: > 10 µM | IC50 [19]: > 10 µM | IC50 [20]: > 10 µM | IC50 [21]: > 10 µM | IC50 [22]: > 10 µM | IC50 [23]: > 10 µM | IC50 [24]: > 10 µM | IC50 [25]: > 10 µM
